Numbers after ± are expanded uncertainties.
How the values were obtained:
[1] = 101.33 kPa, Liquid; for viscosity: Falling or rolling sphere viscometry
[2] = xn = mol fraction of the nth substance listed; conditions: 101.33 kPa, Liquid; for viscosity: Falling or rolling sphere viscometry

Row | Compound | viscosity ([2]; 293.15 K, x2 = 0) [mPa·s] | mass density ([2]; 293.15 K, x2 = 0) [kg/m3] | viscosity ([2]; 303.15 K, x2 = 0) [mPa·s] | mass density ([2]; 303.15 K, x2 = 0) [kg/m3] | viscosity ([2]; 313.15 K, x2 = 0) [mPa·s] | mass density ([2]; 313.15 K, x2 = 0) [kg/m3] | viscosity ([2]; 293.15 K, x1 = 1) [mPa·s] | mass density ([2]; 293.15 K, x1 = 1) [kg/m3] | viscosity ([2]; 303.15 K, x1 = 1) [mPa·s] | mass density ([2]; 303.15 K, x1 = 1) [kg/m3] | viscosity ([2]; 313.15 K, x1 = 1) [mPa·s] | mass density ([2]; 313.15 K, x1 = 1) [kg/m3] | also measured
1 | CCO [ethanol] |  |  |  |  |  |  |  |  |  |  |  |  | mass density ([1]; 293.15 K): 788.24 ± 0.62 kg/m3; viscosity ([1]; 293.15 K): 1.16 ± 0.011 mPa·s; mass density ([1]; 303.15 K): 780.73 ± 0.63 kg/m3; viscosity ([1]; 303.15 K): 0.968 ± 0.009 mPa·s; mass density ([1]; 313.15 K): 771.98 ± 0.64 kg/m3; viscosity ([1]; 313.15 K): 0.81 ± 0.008 mPa·s
2 | CCO [ethanol] + CCCCCC(=O)OCC | 1.16 ± 0.011 | 788.24 ± 0.62 | 0.968 ± 0.009 | 780.73 ± 0.63 | 0.81 ± 0.008 | 771.98 ± 0.64 |  |  |  |  |  |  | 
3 | CCO [ethanol] + CCOC(=O)C(C)CC | 1.16 ± 0.011 | 788.24 ± 0.62 | 0.968 ± 0.009 | 780.73 ± 0.63 | 0.81 ± 0.008 | 771.98 ± 0.64 |  |  |  |  |  |  | 
4 | CCOC(=O)C(C)CC (configuration not stated) [ethyl 2-methylbutanoate] |  |  |  |  |  |  |  |  |  |  |  |  | mass density ([1]; 293.15 K): 869.73 ± 0.57 kg/m3; viscosity ([1]; 293.15 K): 0.831 ± 0.008 mPa·s; mass density ([1]; 303.15 K): 861.48 ± 0.58 kg/m3; viscosity ([1]; 303.15 K): 0.723 ± 0.007 mPa·s; mass density ([1]; 313.15 K): 853.41 ± 0.58 kg/m3; viscosity ([1]; 313.15 K): 0.635 ± 0.006 mPa·s
5 | CCOC(=O)C(C)CC (configuration not stated) [ethyl 2-methylbutanoate] + CCCO |  |  |  |  |  |  | 0.831 ± 0.008 | 869.73 ± 0.57 | 0.723 ± 0.007 | 861.48 ± 0.58 | 0.635 ± 0.006 | 853.41 ± 0.58 | 
6 | CCOC(=O)C(C)CC (configuration not stated) [ethyl 2-methylbutanoate] + CCO |  |  |  |  |  |  | 0.831 ± 0.008 | 869.73 ± 0.57 | 0.723 ± 0.007 | 861.48 ± 0.58 | 0.635 ± 0.006 | 853.41 ± 0.58 | 
7 | CCOC(=O)C(C)CC (configuration not stated) [ethyl 2-methylbutanoate] + CO |  |  |  |  |  |  | 0.831 ± 0.008 | 869.73 ± 0.57 | 0.723 ± 0.007 | 861.48 ± 0.58 | 0.635 ± 0.006 | 853.41 ± 0.58 | 
8 | CCCCCC(=O)OCC [ethyl hexanoate] |  |  |  |  |  |  |  |  |  |  |  |  | mass density ([1]; 293.15 K): 879.01 ± 4 kg/m3; viscosity ([1]; 293.15 K): 0.816 ± 0.008 mPa·s; mass density ([1]; 303.15 K): 869.31 ± 4 kg/m3; viscosity ([1]; 303.15 K): 0.704 ± 0.007 mPa·s; mass density ([1]; 313.15 K): 863.28 ± 4 kg/m3; viscosity ([1]; 313.15 K): 0.614 ± 0.006 mPa·s
9 | CCCCCC(=O)OCC [ethyl hexanoate] + CCCO |  |  |  |  |  |  | 0.816 ± 0.008 | 879.01 ± 0.58 | 0.704 ± 0.007 | 869.31 ± 0.57 | 0.614 ± 0.006 | 863.28 ± 0.56 | 
10 | CCCCCC(=O)OCC [ethyl hexanoate] + CCO |  |  |  |  |  |  | 0.816 ± 0.008 | 879.01 ± 0.58 | 0.704 ± 0.007 | 869.31 ± 0.57 | 0.614 ± 0.006 | 863.28 ± 0.56 | 
11 | CCCCCC(=O)OCC [ethyl hexanoate] + CO |  |  |  |  |  |  | 0.816 ± 0.008 | 879.01 ± 0.58 | 0.704 ± 0.007 | 869.31 ± 0.57 | 0.614 ± 0.006 | 863.28 ± 0.56 | 
12 | CO [methanol] |  |  |  |  |  |  |  |  |  |  |  |  | mass density ([1]; 293.15 K): 791.08 ± 0.63 kg/m3; viscosity ([1]; 293.15 K): 0.577 ± 0.005 mPa·s; mass density ([1]; 303.15 K): 781.95 ± 0.64 kg/m3; viscosity ([1]; 303.15 K): 0.512 ± 0.005 mPa·s; mass density ([1]; 313.15 K): 772.01 ± 0.65 kg/m3; viscosity ([1]; 313.15 K): 0.447 ± 0.004 mPa·s
13 | CO [methanol] + CCCCCC(=O)OCC | 0.577 ± 0.005 | 791.08 ± 0.63 | 0.512 ± 0.005 | 781.95 ± 0.64 | 0.447 ± 0.004 | 772.01 ± 0.65 |  |  |  |  |  |  | 
14 | CO [methanol] + CCOC(=O)C(C)CC | 0.577 ± 0.005 | 791.08 ± 0.63 | 0.512 ± 0.005 | 781.95 ± 0.64 | 0.447 ± 0.004 | 772.01 ± 0.65 |  |  |  |  |  |  | 
15 | CCCO [propan-1-ol] |  |  |  |  |  |  |  |  |  |  |  |  | mass density ([1]; 293.15 K): 803.64 ± 0.61 kg/m3; viscosity ([1]; 293.15 K): 2.188 ± 0.021 mPa·s; mass density ([1]; 303.15 K): 795.48 ± 0.62 kg/m3; viscosity ([1]; 303.15 K): 1.713 ± 0.016 mPa·s; mass density ([1]; 313.15 K): 787.02 ± 0.63 kg/m3; viscosity ([1]; 313.15 K): 1.378 ± 0.013 mPa·s
16 | CCCO [propan-1-ol] + CCCCCC(=O)OCC | 2.188 ± 0.021 | 803.64 ± 0.61 | 1.713 ± 0.016 | 795.48 ± 0.62 | 1.378 ± 0.013 | 787.02 ± 0.63 |  |  |  |  |  |  | 
17 | CCCO [propan-1-ol] + CCOC(=O)C(C)CC | 2.188 ± 0.021 | 803.64 ± 0.61 | 1.713 ± 0.016 | 795.48 ± 0.62 | 1.378 ± 0.013 | 787.02 ± 0.63 |  |  |  |  |  |  | 
